Columns and labels:
[1] = molecular target: T1, Solute carrier organic anion transporter family member 1B1 (Homo sapiens, UniProt Q9Y6L6); settings: chinese hamster, cho, 10 µM
T1 sequence (Q9Y6L6 whole entry): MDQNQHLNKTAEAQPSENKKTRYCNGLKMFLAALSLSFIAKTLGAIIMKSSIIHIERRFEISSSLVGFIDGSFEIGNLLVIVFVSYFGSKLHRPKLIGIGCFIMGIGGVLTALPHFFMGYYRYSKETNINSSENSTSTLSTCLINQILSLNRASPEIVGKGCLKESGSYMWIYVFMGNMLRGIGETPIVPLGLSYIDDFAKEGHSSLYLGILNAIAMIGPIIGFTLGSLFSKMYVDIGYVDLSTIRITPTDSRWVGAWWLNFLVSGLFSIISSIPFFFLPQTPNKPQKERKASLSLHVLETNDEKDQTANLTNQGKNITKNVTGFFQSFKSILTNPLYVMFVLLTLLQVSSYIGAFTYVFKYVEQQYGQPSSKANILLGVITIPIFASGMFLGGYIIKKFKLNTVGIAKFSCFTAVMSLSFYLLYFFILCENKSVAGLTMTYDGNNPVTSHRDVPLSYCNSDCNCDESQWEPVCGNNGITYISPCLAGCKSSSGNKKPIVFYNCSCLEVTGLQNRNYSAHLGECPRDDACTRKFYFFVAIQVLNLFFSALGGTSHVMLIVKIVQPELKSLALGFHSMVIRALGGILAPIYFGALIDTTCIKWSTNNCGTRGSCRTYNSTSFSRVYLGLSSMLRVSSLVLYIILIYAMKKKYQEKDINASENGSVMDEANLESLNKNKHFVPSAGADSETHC

[2] = molecular target: T2, Solute carrier organic anion transporter family member 1B3 (Homo sapiens, UniProt Q9NPD5); settings: chinese hamster, cho, 10 µM
T2 sequence (Q9NPD5 whole entry): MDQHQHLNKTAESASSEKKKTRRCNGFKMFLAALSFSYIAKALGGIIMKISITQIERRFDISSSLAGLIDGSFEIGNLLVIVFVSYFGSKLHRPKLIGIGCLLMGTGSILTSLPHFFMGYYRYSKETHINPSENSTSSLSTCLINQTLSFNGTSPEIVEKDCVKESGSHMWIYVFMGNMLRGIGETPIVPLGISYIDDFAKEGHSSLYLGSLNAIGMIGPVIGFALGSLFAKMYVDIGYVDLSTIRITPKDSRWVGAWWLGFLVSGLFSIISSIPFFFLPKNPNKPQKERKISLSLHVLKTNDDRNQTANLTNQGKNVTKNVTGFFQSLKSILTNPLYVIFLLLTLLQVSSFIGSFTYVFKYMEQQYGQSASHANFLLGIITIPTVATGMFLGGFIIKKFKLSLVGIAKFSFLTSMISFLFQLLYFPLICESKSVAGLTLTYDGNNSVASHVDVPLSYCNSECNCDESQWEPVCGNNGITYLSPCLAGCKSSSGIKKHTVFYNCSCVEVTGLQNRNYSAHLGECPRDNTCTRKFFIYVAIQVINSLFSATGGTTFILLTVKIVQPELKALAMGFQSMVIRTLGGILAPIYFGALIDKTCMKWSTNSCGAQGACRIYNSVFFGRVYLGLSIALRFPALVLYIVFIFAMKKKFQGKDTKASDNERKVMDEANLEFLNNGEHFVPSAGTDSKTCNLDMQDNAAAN

Compound	residual activity [1] [%]	residual activity [2] [%]
CC(=O)O[C@H]1CC[C@]2(C)C3=CC(=O)[C@@]4(C)C(C[C@@H]5OC6(OCC(C)CC6Br)[C@@H](C)[C@@H]54)C3CC[C@H]2C1 (stereo partly drawn) [3beta-ACETOXY-23-BROMO-ISOALLOSPIROST-9 (11)-ENE-12-ONE]	102.6	96.22
O=C1C=C2C=C[C@@H]3C[C@@]2(O1)[C@H]1CCCCN31 [SECURININE]	92.42	115.4
C=C1[C@@H]([C@@]2(C)C=CC(=O)C(C)(C)[C@@H]2CC(=O)OC)CC[C@@]2(C)[C@H](c3ccoc3)OC(=O)[C@H]3O[C@]132 [ANDIROBIN]	103.8	98.71
O=C(O)COc1cc(Cl)c(Cl)cc1Cl [2,4,5-TRICHLOROPHENOXYACETIC ACID]	95.54	96.75
O=C(Cc1cccs1)N[C@@H]1C(=O)N2C(C(=O)[O-])=C(C[n+]3ccccc3)CS[C@H]12 [CEPHALORIDINE]	14.22	31.99
CC(C)NC[C@@H](O)COc1cccc2ccccc12.Cl [DEXPROPRANOLOL HYDROCHLORIDE]	108.7	103.2
CCN(CC)CCOC(=O)C1(C2CCCCC2)CCCCC1.Cl [DICYCLOMINE HYDROCHLORIDE]	106.9	105.3
COC(=O)C[C@H]1C(C)(C)[C@]2(Cl)O[C@@]34CC2C(=O)[C@]1(C)C3CC[C@]1(C)C4=CC(=O)O[C@H]1c1ccoc1 (stereo partly drawn)	68.86	88.12
Nc1ccn([C@@H]2O[C@H](CO)[C@@H](O)[C@H]2O)c(=O)n1 [CYTIDINE]	99.44	114
COc1cc(OC)c2c(=O)c(-c3ccccc3)c(C)oc2c1OC [2-METHYL-5,7,8-TRIMETHOXYISOFLAVONE]	115.1	98.52
CC(C)=CCC[C@]1(C)C=Cc2c(O)c3c(c(CC=C(C)C)c2O1)O[C@]12C(=C[C@@H]4C[C@H]1C(C)(C)O[C@@]2(C/C=C(/C)C(=O)O)C4=O)C3=O [GAMBOGIC ACID]	75.57	65.8
CCCCCC1C(=O)CCC1CC(=O)OC (stereo not drawn) [DIHYDROJASMONIC ACID, METHYL ESTER]	109.5	82.72
Clc1ccc(CSC(Cn2ccnc2)c2ccc(Cl)cc2Cl)cc1.O=[N+]([O-])O (stereo not drawn) [SULCONAZOLE NITRATE]	116.2	107.6
CC1(C)[C@@H](OC(=O)CCC(=O)[O-])CC[C@]2(C)[C@H]3C(=O)C=C4[C@@H]5C[C@@](C)(C(=O)[O-])CC[C@]5(C)CC[C@@]4(C)[C@]3(C)CC[C@@H]12.[Na+].[Na+] [CARBENOXOLONE SODIUM]	15.44	14.47
NC(=O)c1cc([N+](=O)[O-])cc([N+](=O)[O-])c1 [NITROMIDE]	103.7	106.7
COc1cc2c(cc1OC)C(=O)c1ccc(OC)c(OC)c1OCC(=O)C2 [HAEMATOXYLONE, TETRAMETHYL-]	141.3	90.54
CCOP(=S)(OCC)SCSCC [PHORATE]	102.7	107.3
CC[C@@H](C)C(=O)O[C@H]1[C@H](O)[C@H]2[C@@H](CN3C[C@@H](C)CC[C@H]3[C@@]2(C)O)[C@@H]2C[C@]34O[C@]5(O)[C@@H](OC(=O)[C@](C)(O)[C@@H](C)O)CC[C@@]3(C)[C@@H]5[C@@H](OC(C)=O)[C@@H](OC(C)=O)[C@H]4[C@@]21O [PROTOVERATRINE B]	114.4	125.5
Cc1c(O)c(C(=O)CC(C)C)c2oc3c(C(=O)CC(C)C)c(O)c(C)c(O)c3c2c1O [RHODOMYRTOXIN]	31.12	66.23
CC[C@H](/C=C/[C@@H](C)[C@H]1CC[C@H]2[C@@H]3CCC4=CC(=O)CC[C@]4(C)[C@H]3CC[C@]12C)C(C)C	89.99	88.84
O=C([O-])CF.[Na+] [SODIUM FLUOROACETATE]	112.7	104.2
C[C@H]1CC[C@]2(NC1)O[C@H]1C[C@H]3[C@@H]4CC[C@H]5C[C@@H](O)CC[C@]5(C)[C@H]4CC[C@]3(C)[C@H]1[C@@H]2C.Cl	108.8	99.59

Next, values leading:

residual activity [1] [%]	residual activity [2] [%]	Compound
121.2	83.15	O=C1C(O)=C(O)C(=O)C(O)=C1O [TETROQUINONE]
105	104.8	CCCN(CCC)C(=O)C(CCC(=O)O)NC(=O)c1ccccc1 (stereo not drawn) [PROGLUMIDE]
78.82	78.1	CN1C(C(=O)Nc2ccccn2)=C(O)c2sccc2S1(=O)=O [TENOXICAM]
60.24	82.81	COc1cc(/C=C/C(=O)O)ccc1O [FERULATE]
71.05	96.03	OCC(O)CN1CCN(c2ccccc2)CC1 (stereo not drawn) [DROPROPIZINE]
114.7	112	OC[C@H]1O[C@@H](n2cnc3c(NCc4ccco4)ncnc32)[C@H](O)[C@@H]1O [KINETIN RIBOSIDE]
109.2	127.1	COc1ccc2c(C)cc(=O)oc2c1 [HYMECROMONE METHYL ETHER]
121.8	106.2	CCN1CCCC1CNC(=O)c1cc(S(N)(=O)=O)ccc1OC (stereo not drawn) [SULPIRIDE]
18.99	31.96	CC1=C(/C=C/C(C)=C/C=C/C(C)=C/CO)C(C)(C)CCC1 [RETINOL]
110.4	110.4	CC(C)[N+](C)(CCOC(=O)C1c2ccccc2Oc2ccccc21)C(C)C.[Br-] [PROPANTHELINE BROMIDE]
67.13	93.34	COc1ccc(-c2cc(=O)c3c(O)cc(O[C@@H]4O[C@H](CO[C@@H]5O[C@@H](C)[C@H](O)[C@@H](O)[C@H]5O)[C@@H](O)[C@H](O)[C@H]4O)cc3o2)cc1O [DIOSMIN]
161.6	112.7	OC(c1cc(C(F)(F)F)nc2c(C(F)(F)F)cccc12)C1CCCCN1 (stereo not drawn) [MEFLOQUINE]
61.9	49.51	C[C@@H]1O[C@@H](OC[C@H]2O[C@@H](Oc3c(-c4ccc(OCCO)c(OCCO)c4)oc4cc(OCCO)cc(O)c4c3=O)[C@H](O)[C@@H](O)[C@@H]2O)[C@H](O)[C@H](O)[C@H]1O [TROXERUTIN]
55.19	43.93	O=C1C(CC[S+]([O-])c2ccccc2)C(=O)N(c2ccccc2)N1c1ccccc1 (stereo not drawn) [SULFINPYRAZONE]
105.4	102.5	COC(=O)Nc1nc2ccc(Sc3ccccc3)cc2[nH]1 [FENBENDAZOLE]
93.72	82.48	C=C1CCC2C(CC2(C)C)C(=O)CCC1O (stereo not drawn) [ISOKOBUSONE]
23.21	3.759	CCCCc1nc(Cl)c(CO)n1Cc1ccc(-c2ccccc2-c2nn[nH]n2)cc1 [LOSARTAN]
